The subject of series [1] is P. falciparum 3D7. Description: Stage-specific assay on ring and schizont stages (SYBR Green I, 24 h). The conditions noted are these: eight concentrations from 100-fold IC50. Format: cell-based, Plasmodium falciparum. The procedure:
(§1) To ensure uniformity, the parasites underwent a rigorous synchronization process using a two-step sorbitol treatment procedure. This synchronized parasite population was harnessed within a 2-h window for the ring stage, 8–10 h for the trophozoite stage, and 24–26 h for the schizont stage. Subsequent to sorbitol treatment, early trophozoites could be obtained within 6–8 h after the initial sorbitol treatment (within 20 h of development), while early schizonts could be obtained after an additional 16 h of incubation (within 36 h of development). Beyond 36 h, the schizonts mature, causing the rupture of red blood cells (RBCs) and the consequent release of merozoites, which promptly infect new RBCs.
Wells containing only the test compounds and erythrocytes were included to correct for background activity. The 96-well plates were incubated for 24 h at 37 °C in an atmosphere of 5% CO2 and 5% O2. The growth of P. falciparum 3D7 was detected using a SYBR Green I-based fluorescence assay.

The next series has as its system P. yoelii 17XNL. Format: in vivo. The conditions noted are these: C57BL/6 mice, P. yoelii 17XNL; for Parasitemia compared to the untreated control group: 20 mg/kg daily over 10 days; for Body weight or hematocrit levels / Mortality / Peak of parasitemia, trial 1 / Peak of parasitemia, trial 2: 20 mg/kg i.p. once daily for ten days; for Peak of parasitemia, trial 1: untreated 21.7%; for Peak of parasitemia, trial 2: untreated 28.3%. The method, then: Male C57BL/6 mice, aged eight weeks, were obtained from Japan CLEA (Tokyo, Japan) and housed with six per cage in each group. These mice were kept under conditions of 24 °C, 50% relative humidity, and a light-dark cycle of 8 a.m. to 8 p.m. Access to drinking water and food (CLEA Rodent Diet CE-2; Japan CLEA, Tokyo, Japan) was unrestricted. Prior to experimentation, P. yoelii 17XNL was recovered from cryopreserved erythrocyte stocks via passage in mice. […]. Parasitemia levels were evaluated […] by collecting 2 μL of blood from the mouse tail for thin blood smear preparation. Treatment was initiated upon reaching a parasitemia level of 1%. […]. Parasitemia in infected mice was observed daily by preparing Giemsa-stained thin blood smears (up to 30 dpi). Hematocrit levels were measured every other day using a Celltac-α MEK-6550 (Nihon Kohden, Tokyo, Japan), with 10 μL of blood collected from the mouse tail for each assessment. The animals were handled and treated in accordance with the Guide for the Care and Use of Laboratory Animals by the Ministry of Education, Culture, Sports, Science, and Technology, Japan. Ethical permission for the animal experiment protocols was secured under permit numbers 21–35 and 23–90 from the ethical committee of Obihiro University of Agriculture and Veterinary Medicine.
The median point within this range was selected to maintain a balance between efficacy and safety. Furthermore, a modified Peter's suppression test was utilized to assess the efficacy of antimalarial drugs ([Ager, 1984]; [Peters et al., 1975]). The treatment and observation period were initially set for 4 days. […] […]. […] These findings highlight the effect of the 20 mg/kg/day dosage of Compounds 31 and 32 in reducing parasitemia without causing side effects.

In series [2] the test system is P. falciparum 3D7. Description: In vitro inhibition of P. falciparum 3D7 (SYBR Green I-based fluorescence assay). It is filed as cell-based, Plasmodium falciparum. On the set-up: logIC50: unit not given here. As to conditions: for IC80 / IC50: Plasmodium falciparum; for IC80: concentration used in the 72-h exposure assay; for logIC50: base-10 log-transformed IC50 against P. falciparum 3D7. The method, then:
(§2) The cultures were maintained in an incubator under specific conditions: 37 °C under 5% CO2 and 5% O2.
(§3) The D-sorbitol method (CAS: 50-70-4, Wako, Osaka, Japan) was employed to synchronize parasites, resulting in the attainment of ≥90% ring-stage parasites. These synchronized parasites were then utilized for the experiments within a 2-h window. The assay was performed as follows. First, 50 μL of synchronized parasites with 0.5% parasitemia and 2% hematocrit were added to individual wells of a 96-well plate. Then, 50 μL of the test compounds was introduced to each well. […] Wells containing only test compounds and erythrocytes were included for background correction. […] After the designated incubation time, 100 μL of lysis buffer containing 0.02% (v/v) SYBR Green I was added to each well, the contents of the well were mixed by pipetting, and the plate was incubated in the dark at room temperature for 2 h. […] This assay was repeated four times at each concentration, and the resulting inhibitory values represent the average from three independent trials.
(§4) The IC50 or CC50 values were determined from three independent experiments by plotting the logarithmic concentration of the compound against the percent parasite inhibition or cell growth inhibition, respectively. Nonlinear regression analysis was conducted using GraphPad Prism 10 (GraphPad Software, Inc., La Jolla, CA, USA). Comparisons between groups were evaluated using either one-way or two-way ANOVA followed by Tukey's or Fisher's multiple comparisons tests. […] The meaning of each symbol is specified in the corresponding figure legend alongside the name of the employed test.

A further series concerns P. falciparum K1. Description: In vitro inhibition of P. falciparum K1 (SYBR Green I-based fluorescence assay). Format: cell-based. The conditions noted are these: Plasmodium falciparum; multidrug-resistant strain K1; 72 h incubation; average ± SD, three independent experiments; read-out: IC50 P. falciparum K1. The method, then: as §2, §3, §4
Series [3] deals with P. falciparum 3D7. In words: Stage-specific microscopy examination (ring, trophozoite, schizont). Format: cell-based, Plasmodium falciparum. The conditions noted are these: for Inhibition of the life cycle at 10- and 1-fold IC50: 24 h; for Parasite morphology after 24 h treatment: ring, trophozoite, schizont stages, artemisinin and chloroquine at all concentrations, Compounds 31 and 32 at 100 times IC50. The method, then: as §1
The negative control group consisted of cultures treated solely with complete medium and was designated the no treatment (NT) group. This analysis was repeated three times at each concentration. Following a 24-h incubation period, the culture in a 96-well plate was centrifuged at 1300 g for 5 min to settle down the iRBC; then, the supernatants were removed, and the iRBCs were washed with fresh media at the same volume as the initial culture. The centrifugation and washing were repeated 3 times, allowing the compound to be diluted by approximately 1000 times. Subsequently, thin blood smears from each treatment group were prepared using 1 μL of settled iRBCs. The proportion of parasites affected by the drug, including those with both abnormal and retained morphologies, was calculated by examining 100 parasites and counting the number displaying irregular development. Subsequently, the number of abnormal parasites was divided by the total count and then multiplied by 100 to obtain a percentage. The parameters used to define normal and abnormal morphologies can be found in Table S3 and Fig. S1.

The nature of series [4]: In vitro toxicity to human cells (cell viability assay). Format: cell-based. As to conditions: human foreskin fibroblasts (HFFs), average ± SD, three independent experiments. The procedure:
HFF cells are selected for cytotoxicity testing in this study, providing a physiologically relevant model for the evaluation of drug interactions with human cells. […] This designation makes them a suitable model for the investigation of cellular processes and their sensitivity to toxic substances, which is crucial for the early identification of potential adverse effects of drugs during the development process.
The IC50 or CC50 values were determined from three independent experiments by plotting the logarithmic concentration of the compound against the percent parasite inhibition or cell growth inhibition, respectively. Nonlinear regression analysis was conducted using GraphPad Prism 10 (GraphPad Software, Inc., La Jolla, CA, USA). Comparisons between groups were evaluated using either one-way or two-way ANOVA followed by Tukey's or Fisher's multiple comparisons tests. A p-value of <0.05 was considered to indicate statistical significance and is denoted by an asterisk or a symbol. The meaning of each symbol is specified in the corresponding figure legend alongside the name of the employed test.

Setting [5] is: Table S2, P. falciparum 3D7, value used for SAR analysis, read-out: IC50.
Where [6] appears, read: chloroquine-sensitive strain 3D7, 72 h incubation, average ± SD, three independent experiments, read-out: IC50 P. falciparum 3D7.

Where two headings read alike, the source gives them in different places.

A word on the IC80: it is the concentration needed for an effect of 80%. Usually IC50 stands for the midpoint of a concentration-inhibition curve. A word on the CC50: it is the concentration that lowers cell viability or growth by half.

Take `COc1cccc(-c2ncc(-c3ccccc3O)o2)c1OC` [Compound 31, 2-(2′,3′-dimethoxyphenyl)-5-(2″-hydroxyphenyl)oxazole]: the “Stage specificity (ring and schizont stages)” value in the series on P. falciparum 3D7 [1] is on record as “classic slow-acting profile, which only gains significant activity at elevated concentrations”. In the series on P. yoelii 17XNL, the “Parasitemia compared to the untreated control group” value was “significant reduction in parasitemia”; the “Body weight or hematocrit levels” value is “nor were reductions in body weight or hematocrit levels observed”; the Mortality entry is “no instances of mortality”; the “Peak of parasitemia, trial 1” value is given as 12.7%. In addition, the “Peak of parasitemia, trial 2” value in the series on P. yoelii 17XNL was 15.8%. Further, it took 18.1 µM to reach the 80% level with P. falciparum 3D7 [2] (P. falciparum 3D7) (IC80). For the same compound, the IC50 in the series on P. falciparum 3D7 [2] (setting [5]) was 8.37 µM. In the series on P. falciparum 3D7 [2] (setting [6]), the IC50 is 8.37 ± 1.28 µM. The logIC50 with P. falciparum 3D7 [2] (Table S2) is reported as 0.9226. Moreover, the IC50 in the series on P. falciparum K1 came to 2.66 ± 1.15 µM. In the series on P. falciparum 3D7 [3], the “Inhibition of the life cycle at 10- and 1-fold IC50” value was “only partial inhibition of the life cycle”; the “Parasite morphology after 24 h treatment” value was “abnormal phenotype of ring-stage parasites”. The CC50 in series [4] is > 336 µM.
Regarding `COc1cccc(-c2ncc(-c3ccccc3OCc3ccccc3)o2)c1OC` [Compound 32, 2-(2′,3′-dimethoxyphenyl)-5-(2″-benzyloxyphenyl)oxazole], the “Stage specificity (ring and schizont stages)” value with P. falciparum 3D7 [1] was “effect on the ring and schizont stages is comparable to those positive controls”. For the same compound, in the series with P. yoelii 17XNL, the “Parasitemia compared to the untreated control group” value was “significant reduction in parasitemia”; the “Body weight or hematocrit levels” value was “nor were reductions in body weight or hematocrit levels observed”; the Mortality entry is listed as “no instances of mortality”; the “Peak of parasitemia, trial 1” value stood at 12.7%. The “Peak of parasitemia, trial 2” value in the series with P. yoelii 17XNL was 14.0%. In the series with P. falciparum 3D7 [2] (P. falciparum 3D7), this compound gave an 80% effect concentration (IC80) of 11.7 µM. For the same compound, the IC50 in the series with P. falciparum 3D7 [2] (setting [5]) was 6.25 µM. For the same compound, in the series with P. falciparum 3D7 [2] (setting [6]), the half-inhibitory concentration (IC50) came out at 6.25 ± 1.39 µM. This compound also displayed a logIC50 in the series with P. falciparum 3D7 [2] (Table S2) of 0.7961. In the series on P. falciparum K1, the half-maximal inhibitory concentration (IC50) was 4.37 ± 1.7 µM. In the series with P. falciparum 3D7 [3], the “Inhibition of the life cycle at 10- and 1-fold IC50” value is “only partial inhibition of the life cycle”; the “Parasite morphology after 24 h treatment” value was “abnormal phenotype of ring-stage parasites”. The CC50 in series [4] is > 258 µM.
